Data: patent US20260337191A1, “CRYSTAL FORM OF EMRACLIDINE, PREPARATION METHOD THEREFOR, AND USE THEREOF” (Cerevel Therapeutics, LLC, priority 2022, published 2026)

How the values were obtained:
[1] = Storage stability of crystal form drug substance (HPLC purity and XRPD); assay type: physicochemical
Description: The X-ray powder diffraction pattern described in the invention is collected by a Bruker X-ray powder diffractometer. The parameters for the X-ray powder diffraction method according to the invention are as follows: • X-ray light source: Cu, Kα, • Kα1 (Å): 1.54060; Kα2 (Å): 1.54439, • Kα2/Kα1 intensity ratio: 0.50.
An appropriate amount of a crystal-form-CSI sample was packaged under corresponding packaging conditions and stored at 40° C./75% RH for a certain period of time, the purity and crystal form were determined by HPLC and XRPD, and the results are shown in Table 7.
Open: a sample was placed in a glass vial without a lid and stored in corresponding environment while the vial was open.
An appropriate amount of a crystal-form-CSII sample was packaged under corresponding packaging conditions and stored for a certain period of time at 25° C./60% RH, 40° C./75% RH, and 60° C./75% RH, the purity and crystal form were determined by HPLC and XRPD, and the result is shown in Table 12.
Sealing: The sample was placed in a glass vial, which was covered by a lid and sealed in a double-layer PE bag, followed by an aluminum foil bag. […]
Sealed: The sample was placed in a glass vial, which was covered by a lid and sealed in a double-layer PE bag, followed by an aluminum foil bag. […]
An appropriate amount of a crystal-form-CSV sample was packaged under corresponding packaging conditions and stored for a certain period of time at 25° C./60% RH, 40° C./75% RH, and 60° C./75% RH, the purity and crystal form were determined by HPLC and XRPD, and the result is shown in Table 16.

[2] = Stability under mechanical force: ball milling, XRPD; assay type: physicochemical; conditions: 500 rpm, 5 minutes, XRPD before and after
Description: A crystal-form-CSII sample was ball-milled at a vibration speed of 500 rpm for 5 minutes using a ball mill, the sample before and after ball milling was tested by XRPD, the test result is shown in FIG. 17, and crystal form CSII is not changed after ball milling.
A crystal-form-CSIII sample was ball-milled at a vibration speed of 500 rpm for 5 minutes using a ball mill. The sample before and after ball milling was tested by XRPD, the test result is shown in FIG. 22, and crystal form CSIII is not changed after the ball milling.
A crystal-form-CSIV sample was ball-milled at a vibration speed of 500 rpm for 5 minutes using a ball mill, the sample before and after ball milling was tested by XRPD, the test result is shown in FIG. 25, and crystal form CSIV is not changed after ball milling.
A crystal-form-CSV sample was ball-milled at a vibration speed of 500 rpm for 5 minutes using a ball mill, the sample before and after ball milling was tested by XRPD, the test result is shown in FIG. 28, and crystal form CSV is not changed after ball milling.

[3] = Stability under mechanical force: tableting, XRPD; assay type: physicochemical; conditions: 15 KN, φ 6 mm round tooling, XRPD before and after
[4] = Hygroscopicity by dynamic vapor sorption (DVS); assay type: physicochemical; conditions: for weight increase due to hygroscopicity: 25° C.
Description: The dynamic vapor sorption (DVS) pattern for the experiment is collected by an Intrinsic dynamic vapor sorption instrument manufactured by Surface Measurement Systems Ltd. (SMS). Control software for the instrument is DVS-Intrinsic control software. The method parameters of the dynamic vapor sorption instrument are as follows: • temperature: 25° C., • carrier gas, and flow rate: N2, and 200 ml/min, • mass change per unit time: 0.002%/min, • relative humidity range: 0% RH-95% RH.
About 10 mg of a crystal-form-CSI sample was taken and tested for hygroscopicity using a dynamic vapor sorption (DVS) instrument, with a relative humidity cycle of 30%-90%-0%-90% RH, and a mass change for each humidity was recorded. The sample was tested by XRPD before and after DVS testing. […] The DVS pattern of crystal form CSI is shown in FIG. 13, and the weight increase of crystal form CSI due to hygroscopicity is 0.36% at 30%-80% RH.
About 10 mg of a crystal-form-CSII sample was taken and tested for hygroscopicity using a dynamic vapor sorption (DVS) instrument, with a relative humidity cycle of 0%-90%-0% RH, and a mass change for each humidity was recorded. The sample was tested by XRPD before and after DVS testing. […] The DVS pattern of crystal form CSII is shown in FIG. 18, and the weight increase of crystal form CSII due to hygroscopicity is 0.28% at 0%-80% RH.
About 10 mg of a crystal-form-CSIII sample was taken and tested for hygroscopicity using a dynamic vapor sorption (DVS) instrument, with a relative humidity cycle of 0%-90%-0% RH, and a mass change for each humidity was recorded. The sample was tested by XRPD before and after DVS testing. […] The DVS pattern of crystal form CSIII is shown in FIG. 23, and the weight increase of crystal form CSIII due to hygroscopicity is 0.21% at 0%-80% RH.
About 10 mg of a crystal-form-CSIV sample was taken and tested for hygroscopicity using a dynamic vapor sorption (DVS) instrument, with a relative humidity cycle of 0%-90%-0% RH, and a mass change for each humidity was recorded. The sample was tested by XRPD before and after DVS testing. […] The DVS pattern of crystal form CSIV is shown in FIG. 26, and the weight increase of crystal form CSIV due to hygroscopicity is 0.11% at 0%-80% RH.
About 10 mg of a crystal-form-CSV sample was taken and tested for hygroscopicity using a dynamic vapor sorption (DVS) instrument, with a cycle of 30%-90%-0%-90% RH, and a mass change for each humidity was recorded. The sample was tested by XRPD before and after DVS testing. […] The DVS pattern of crystal form CSV is shown in FIG. 29, and the weight increase of crystal form CSV due to hygroscopicity is 0.29% at 30%-80% RH.

[5] = Crystal form stability in formulation process, XRPD; assay type: physicochemical; conditions: formula Table 8, process Table 10, XRPD
Description: A crystal-form-CSI formulation was prepared by using the formulation formula shown in table 8 and the formulation process shown in table 10, and a formula for mixture of excipients is shown in table 9. A mixture of excipients and the sample before and after the formulation formulas were tested by XRPD, and the result is shown in FIG. 14.
A crystal-form-CSII formulation was prepared by using the formulation formula shown in Table 8 and the formulation process shown in Table 10, and an excipient formula is shown in Table 9. A mixture of excipients and the sample before and after the formulation formulas were tested by XRPD, and the result is shown in FIG. 19.
A crystal-form-CSV formulation was prepared by using the formulation formula shown in Table 8 and the formulation process shown in Table 10, and an excipient formula is shown in Table 9. A mixture of excipients and the sample before and after the formulation formulas were tested by XRPD, and the result is shown in FIG. 30.

[6] = Thermal gravimetric analysis (TGA); assay type: physicochemical; conditions: 10° C./min, N2
Description: The thermal gravimetric analysis (TGA) pattern as described in the invention is collected by TA Q500. The parameters for the thermal gravimetric analysis (TGA) method described in the invention are as follows: • scanning speed: 10° C./min, • protective gas: N2.

[7] = Phase-Ib clinical result, Cerevel Therapeutics; cited from earlier work
[8] = heated from room temperature to 180° C.

Row | Compound | stable for at least ([1]; 40° C./75% RH) | Crystal Form ([1]; initial (before storage)) | Purity ([1]; initial (before storage)) [%] | crystal form after ball milling [2] | crystal form after tableting [3] | change in sample properties after humidity cycle ([4]; 0%-90%-0% RH cycle) | weight increase due to hygroscopicity ([4]; 30%-80% RH) [%] | change in sample properties after humidity cycle ([4]; 30%-90%-0%-90% RH cycle) | crystal form after DVS testing ([4]; 30%-90%-0%-90% RH cycle) | crystal form after formulation formula processes [5] | stable for at least ([1]; 25° C./60% RH) | Crystal Form ([1]; 25° C./60% RH, sealed, 6 month) | Purity ([1]; 25° C./60% RH, sealed, 6 month) [%] | Crystal Form ([1]; 40° C./75% RH, sealed, 6 month) | Purity ([1]; 40° C./75% RH, sealed, 6 month) [%] | stable for at least ([1]; 60° C./75% RH) | weight increase due to hygroscopicity ([4]; 0%-80% RH) [%] | crystal form after DVS testing ([4]; 0%-90%-0% RH cycle) | Crystal Form ([1]; 60° C./75% RH, sealed, 1 month) | TGA weight loss [6, 8] | further results
1 | Cc1cc(C)c2c(n1)CN(C(=O)CC1CN(c3ccnc(C(F)(F)F)c3)C1)C2 [Crystal Form CSI] | at least 6 months | Form CSI | 99.53 | remains unchanged | remains unchanged | no significant change in sample properties | 0.36 | no significant change in sample properties | remains unchanged | not changed |  |  |  |  |  |  |  |  |  |  | Crystal Form ([1]; 40° C./75% RH, open, 6 month): Form CSI; Purity ([1]; 40° C./75% RH, open, 6 month): 99.59%
2 | Cc1cc(C)c2c(n1)CN(C(=O)CC1CN(c3ccnc(C(F)(F)F)c3)C1)C2 [Crystal Form CSV] | at least 6 months | Form CSV | 99.96 | not changed | not changed |  | 0.29 | no significant change in sample properties | not changed | not changed | at least 6 months | Form CSV | 99.96 | Form CSV | 99.96 | at least 2 month |  |  |  |  | Crystal Form ([1]; 60° C./75% RH, sealed, 2 month): Form CSV; Purity ([1]; 60° C./75% RH, sealed, 2 month): 99.95%; TGA weight loss ([6]; heated from 35° C. to 150° C.): 3.8%
3 | Cc1cc(C)c2c(n1)CN(C(=O)CC1CN(c3ccnc(C(F)(F)F)c3)C1)C2 [Emraclidine, 1-(2,4-dimethyl-5,7-dihydro-6H-pyrrolo[3,4-b]pyridin-6-yl)-2-{1-[2-(trifluoromethyl)pyridin-4-yl]azetidin-3-yl}ethanone] |  |  |  |  |  |  |  |  |  |  |  |  |  |  |  |  |  |  |  |  | antipsychotic activities compared to placebos [7]: clinically significant antipsychotic activities
4 | Cc1cc(C)c2c(n1)CN(C(=O)CC1CN(c3ccnc(C(F)(F)F)c3)C1)C2 [Crystal Form CSIII] | at least 2 months | Form CSIII |  | not changed |  |  |  |  |  |  |  |  |  |  |  |  | 0.21 | not changed |  |  | Crystal Form ([1]; 40° C./75% RH, sealed, 2 month): Form CSIII; TGA weight loss ([6]; heated from room temperature to 170° C.): substantially no weight loss
5 | Cc1cc(C)c2c(n1)CN(C(=O)CC1CN(c3ccnc(C(F)(F)F)c3)C1)C2 [Crystal Form CSIV] | at least 6 months | Form CSIV |  | not changed |  | no significant change in sample properties |  |  |  |  | at least 6 months | Form CSIV |  | Form CSIV |  | at least 1 month | 0.11 | not changed | Form CSIV | substantially no weight loss | 
6 | Cc1cc(C)c2c(n1)CN(C(=O)CC1CN(c3ccnc(C(F)(F)F)c3)C1)C2 [Crystal Form CSII] | at least 6 months | Form CSII | 99.56 | not changed | not changed | no significant change in sample properties |  |  |  | not changed | at least 6 months | Form CSII | 99.60 | Form CSII | 99.57 | at least 1 month | 0.28 | not changed | Form CSII | substantially no weight loss | Purity ([1]; 60° C./75% RH, sealed, 1 month): 99.55%
